Data from the supplement of paper PMC11208160.

Test: recombinant barcode read abundance after kanamycin selection (control-corrected) (log10(CPM+1)); higher = more efficient recombination; sequences stand for … in AGTGCAGAGAAAATCGGCCAGTTTTCTCTGCCTGCAGTCCGCATGCCGT…AGATTTATGCAGCGGACTGCCTTTCTCCCAAAGTGATAAACCGGACAGTATCATGGACCGGTTTTCCCGGTAATCCGTATTTGCAAGGTTGGTTTCACT; site = the 11-nt target
Outline: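 In E. coli, a pooled library matched targets to IS621 bridge RNA target-binding loops and was introduced alongside a donor plasmid. Cells went onto chloramphenicol/ampicillin/kanamycin with 0.1 mM IPTG or onto chloramphenicol/ampicillin LB agar as control, in duplicate. Recombination efficiency, from recombinant-junction barcodes as counts per million, is averaged and control-corrected. It is reported as log10(CPM+1).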
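Note: IS621 recombinase and bridge RNA in Escherichia coli cells.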

First: GTGTCTACTTGGGTTCTAACCTGTTGCCT (site GTGTCTACTAG)
Second: GTGTCTACTTGGGTTCTAACCTGTTGCCT (site TTGTATACTAG)
The “recombinant barcode read abundance (log10)” value of the first is higher: 0.754 for the first, 0.0293 for the second.

First: GTGTCTCCTTGGGTTCTAACCTGTTGCGA (site GAGTGTCCTTC)
Second: GTGTCTCCTTGGGTTCTAACCTGTTGCGA (site GTGTCTCCTTC)
The “recombinant barcode read abundance (log10)” value of the first is lower: 0.00692 for the first, 0.996 for the second.

First: GTGTGGACTTGGGTTCTAACCTGTTGCAG (site GTGAGGACTCA)
Second: GTGTGGACTTGGGTTCTAACCTGTTGCAG (site GTGTGGACTCT)
The “recombinant barcode read abundance (log10)” value of the first is lower: 0.0484 for the first, 2.18 for the second.

Compared with “GTGTGGCCTTGGGTTCTAACCTGTTGCCA (site GTGTGGCCTTG)”, “GTGTGGCCTTGGGTTCTAACCTGTTGCCA (site TCCGATACTAC)” is lower in “recombinant barcode read abundance (log10)” value: 0.574 for the first, 0 for the second.

“GTGTGGCCTTGGGTTCTAACCTGTTGCTT (site GAGTGCCCTAA)” and “GTGTGGCCTTGGGTTCTAACCTGTTGCTT (site GTGTGGCCTAA)” are within 0.2 log units of each other in “recombinant barcode read abundance (log10)” value: 0.107 for the first, 0.294 for the second.

Compared with “GTGTGTACTTGGGTTCTAACCTGTTGCCT (site GTGTGTACTAG)”, “GTGTGTACTTGGGTTCTAACCTGTTGCCT (site GTGTGTCCTAG)” is lower in “recombinant barcode read abundance (log10)” value: 1.21 for the first, 0.101 for the second.

First: GTGTGTACTTGGGTTCTAACCTGTTGCCT (site GTGTGTGCTAG)
Second: GTGTGTACTTGGGTTCTAACCTGTTGCCT (site GTGTGTTCTAG)
The “recombinant barcode read abundance (log10)” value of the first is higher: 0.24 for the first, 0.0215 for the second.

First: GTGTGTGCTTGGGTTCTAACCTGTTGCCT (site GTGTGTACTAG)
Second: GTGTGTGCTTGGGTTCTAACCTGTTGCCT (site GTGTGTCCTAG)
The “recombinant barcode read abundance (log10)” value of the first is higher: 0.821 for the first, 0.0466 for the second.

First: GTGTGTGCTTGGGTTCTAACCTGTTGCCT (site GTGTGTGCTAG)
Second: GTGTGTGCTTGGGTTCTAACCTGTTGCCT (site GTGTGTTCTAG)
The “recombinant barcode read abundance (log10)” value of the first is higher: 1.44 for the first, 0.0513 for the second.

Compared with “GTGTGTTCTTGGGTTCTAACCTGTTGCCA (site GTGTGTTCTTG)”, “GTGTGTTCTTGGGTTCTAACCTGTTGCCA (site TTGTGTTCTTA)” is lower in “recombinant barcode read abundance (log10)” value: 0.336 for the first, 0.0943 for the second.

Compared with “GTTACAACTTGGGTTCTAACCTGTTGCCT (site CTTACGACTAG)”, “GTTACAACTTGGGTTCTAACCTGTTGCCT (site GTTACAACTAG)” is higher in “recombinant barcode read abundance (log10)” value: 0.0197 for the first, 0.263 for the second.

“GTTACGGCTTGGGTTCTAACCTGTTGCCT (site GTTACGGCTAG)” and “GTTACGGCTTGGGTTCTAACCTGTTGCCT (site GTTCCGGCTAG)” are within 0.2 log units of each other in “recombinant barcode read abundance (log10)” value: 0.0907 for the first, 0.0623 for the second.

“GTTACGGCTTGGGTTCTAACCTGTTGCCT (site GTTGCGGCTAG)” and “GTTACGGCTTGGGTTCTAACCTGTTGCCT (site GTTTCGGCTAG)” are within 0.2 log units of each other in “recombinant barcode read abundance (log10)” value: 0.0497 for the first, 0 for the second.

Compared with “GTTAGAGCTTGGGTTCTAACCTGTTGCCT (site GTTAGAGCTAG)”, “GTTAGAGCTTGGGTTCTAACCTGTTGCCT (site GTTCGAGCTAG)” is lower in “recombinant barcode read abundance (log10)” value: 1.32 for the first, 0.235 for the second.

“GTTAGAGCTTGGGTTCTAACCTGTTGCCT (site GTTGGAGCTAG)” and “GTTAGAGCTTGGGTTCTAACCTGTTGCCT (site GTTTGAGCTAG)” are within 0.2 log units of each other in “recombinant barcode read abundance (log10)” value: 0.0737 for the first, 0.225 for the second.

Going from “GTTAGGCCTTGGGTTCTAACCTGTTGCCT (site GATAGGCCTAG)” to “GTTAGGCCTTGGGTTCTAACCTGTTGCCT (site GTTAGGCCTAG)”, the “recombinant barcode read abundance (log10)” value rises from 0.0232 to 0.292.

“GTTCAACCTTGGGTTCTAACCTGTTGCCT (site GATCAACCTAG)” and “GTTCAACCTTGGGTTCTAACCTGTTGCCT (site GCTCAACCTAG)” are within 0.2 log units of each other in “recombinant barcode read abundance (log10)” value: 0.242 for the first, 0.154 for the second.

Compared with “GTTCAACCTTGGGTTCTAACCTGTTGCCT (site GGTCAACCTAG)”, “GTTCAACCTTGGGTTCTAACCTGTTGCCT (site GTTCAACCTAG)” is higher in “recombinant barcode read abundance (log10)” value: 0.0287 for the first, 1.48 for the second.

First: GTTCCTCCTTGGGTTCTAACCTGTTGCCT (site GTTCCTCCTAG)
Second: GTTCCTCCTTGGGTTCTAACCTGTTGCCT (site GTTCCTGCTAG)
The “recombinant barcode read abundance (log10)” value of the first is higher: 0.823 for the first, 0.0108 for the second.

Going from “GTTGAGTCTTGGGTTCTAACCTGTTGCGT (site CTTGAGCCTAC)” to “GTTGAGTCTTGGGTTCTAACCTGTTGCGT (site GTTGAGTCTAC)”, the “recombinant barcode read abundance (log10)” value rises from 0.0835 to 1.87.

“GTTTATACTTGGGTTCTAACCTGTTGCCT (site GTATATACTAG)” and “GTTTATACTTGGGTTCTAACCTGTTGCCT (site GTCTATACTAG)” are within 0.2 log units of each other in “recombinant barcode read abundance (log10)” value: 0.0265 for the first, 0.091 for the second.

Compared with “GTTTATACTTGGGTTCTAACCTGTTGCCT (site GTGTATACTAG)”, “GTTTATACTTGGGTTCTAACCTGTTGCCT (site GTTTATACTAG)” is higher in “recombinant barcode read abundance (log10)” value: 0.0593 for the first, 0.305 for the second.

“GTTTCGTCTTGGGTTCTAACCTGTTGCCT (site GTTTCGACTAG)” and “GTTTCGTCTTGGGTTCTAACCTGTTGCCT (site GTTTCGTCTAG)” are within 0.2 log units of each other in “recombinant barcode read abundance (log10)” value: 0.0118 for the first, 0.0924 for the second.

First: GTTTGACCTTGGGTTCTAACCTGTTGCGG (site GTTTGACCTCC)
Second: GTTTGACCTTGGGTTCTAACCTGTTGCGG (site TAGCTGACTGG)
The “recombinant barcode read abundance (log10)” value of the first is higher: 1.47 for the first, 0.0274 for the second.

“GTTTGAGCTTGGGTTCTAACCTGTTGCCT (site GTTAGAGCTAG)” and “GTTTGAGCTTGGGTTCTAACCTGTTGCCT (site GTTCGAGCTAG)” are within 0.2 log units of each other in “recombinant barcode read abundance (log10)” value: 0.231 for the first, 0.261 for the second.

Compared with “GTTTGAGCTTGGGTTCTAACCTGTTGCCT (site GTTGGAGCTAG)”, “GTTTGAGCTTGGGTTCTAACCTGTTGCCT (site GTTTGAGCTAG)” is higher in “recombinant barcode read abundance (log10)” value: 0.05 for the first, 0.625 for the second.

Going from “TAAAAGCCTTGGGTTCTAACCTGTTGCCT (site TAAAAGACTAG)” to “TAAAAGCCTTGGGTTCTAACCTGTTGCCT (site TAAAAGCCTAG)”, the “recombinant barcode read abundance (log10)” value rises from 0.0773 to 0.42.

“TAAAAGCCTTGGGTTCTAACCTGTTGCCT (site TAAAAGGCTAG)” and “TAAAAGCCTTGGGTTCTAACCTGTTGCCT (site TAAAAGTCTAG)” are within 0.2 log units of each other in “recombinant barcode read abundance (log10)” value: 0.0822 for the first, 0.224 for the second.

Compared with “TAAATCACTTGGGTTCTAACCTGTTGCCG (site ACGTATGCTAT)”, “TAAATCACTTGGGTTCTAACCTGTTGCCG (site TAAATCACTCG)” is higher in “recombinant barcode read abundance (log10)” value: 0.0241 for the first, 0.281 for the second.

Going from “TAACGCTCTTGGGTTCTAACCTGTTGCCT (site AAACGCTCTAG)” to “TAACGCTCTTGGGTTCTAACCTGTTGCCT (site TAACGCTCTAG)”, the “recombinant barcode read abundance (log10)” value rises from 0.0696 to 1.2.

Going from “TAACGGGCTTGGGTTCTAACCTGTTGCCG (site TAAAGGGCTAG)” to “TAACGGGCTTGGGTTCTAACCTGTTGCCG (site TAACGGGCTCG)”, the “recombinant barcode read abundance (log10)” value rises from 0.0666 to 0.529.

First: TAACGTACTTGGGTTCTAACCTGTTGCTT (site TAAAGTACTAA)
Second: TAACGTACTTGGGTTCTAACCTGTTGCTT (site TAACGTACTAA)
The “recombinant barcode read abundance (log10)” value of the first is lower: 0.137 for the first, 0.641 for the second.

“TAACGTACTTGGGTTCTAACCTGTTGCTT (site TAAGGTACTAA)” and “TAACGTACTTGGGTTCTAACCTGTTGCTT (site TAATGTACTAA)” are within 0.2 log units of each other in “recombinant barcode read abundance (log10)” value: 0.109 for the first, 0.0185 for the second.
